Results: US20250122174A1 (Shenzhen Yuanli Shenwan Innovative Medicine Co., Ltd., priority 2022, published 2025)
pIC50: −log10 of the molar value.

Biological target: HPK1 (Homo sapiens (Human), UniProt Q92918)
Test: HPK1 Inhibition Assay (ADP-Glo kinase assay)
Type: biochemical
Conditions: ATP 10 μM
Experimental: A stock solution of 10 mM test compound was prepared in DMSO. The compound was prepared by 5-fold and 10-point serial dilutions with HPK1 kinase assay buffer. The HPK1 kinase assay buffer contained 40 mM Tris, pH 7.5; 20 mM MgCl2, 0.1 mg/ml BSA, and 50 μM DTT. 7.5 ng/μl of Active HPK1 (Promega, V4098) and 0.1 μg/ml MBP substrate protein were added to the reaction system. The final concentration of ATP in the HPK1 kinase reaction system was 10 μM. Serial diluted compounds were transferred to the reaction system and incubated at room temperature for 1 hr. 5 μL of ADP-Glo™ Reagent (Promega, V9101) was added and incubated for 40 min to stop the kinase reaction and deplete the unconsumed ATP. […] The luminescence was measured with a plate-reading luminometer.

Sequence of HPK1 (Q92918 1-346 limits assumed): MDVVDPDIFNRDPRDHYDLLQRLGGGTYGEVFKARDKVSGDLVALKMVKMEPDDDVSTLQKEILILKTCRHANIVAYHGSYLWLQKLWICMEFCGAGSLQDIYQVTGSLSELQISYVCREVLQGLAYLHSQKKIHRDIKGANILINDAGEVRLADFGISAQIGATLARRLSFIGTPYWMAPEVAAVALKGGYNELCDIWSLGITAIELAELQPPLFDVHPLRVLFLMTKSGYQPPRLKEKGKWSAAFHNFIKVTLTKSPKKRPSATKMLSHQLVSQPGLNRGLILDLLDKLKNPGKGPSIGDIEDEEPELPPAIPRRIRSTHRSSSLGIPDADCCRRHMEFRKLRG

| Compound | pIC50 |
| --- | --- |
| COc1cccc(F)c1-n1cccc(C(=O)Nc2ccc3c(nc(C)n3C)c2N2CCC[C@H]2CN)c1=O [Example 54, (S)-N-(4-(2-(aminomethyl)pyrrolidin-1-yl)-1,2-dimethyl-1H-benzo[d]imidazol-5-yl)-1-(2-fluoro-6-methoxyphenyl)-2-oxo-1,2-dihydropyridine-3-carboxamide] | > 7.00 |
| COc1cccc(F)c1-c1cccc(C(=O)Nc2cc(F)ccc2N2C[C@H]3C[C@@H]2CN3)[n+]1[O-] [Example 55, 2-((2-((1R,4R)-2,5-diazabicyclo[2.2.1]heptan-2-yl)-5-fluorophenyl)carbamoyl)-6-(2-fluoro-6-methoxyphenyl)pyridine 1-oxide] | > 7.00 |
| COc1cccc(F)c1-c1cccc(C(=O)Nc2ccc3c(cnn3C)c2N2C[C@H]3C[C@@H]2CN3)[n+]1[O-] [Example 56, 2-((4-((1R,4R)-2,5-diazabicyclo[2.2.1]heptan-2-yl)-1-methyl-1H-indazol-5-yl)carbamoyl)-6-(2-fluoro-6-methoxyphenyl)pyridine 1-oxide] | > 7.00 |
| COc1cccc(F)c1-c1cccc(C(=O)Nc2ccc3nn(C)cc3c2N2C[C@H]3C[C@@H]2CN3)[n+]1[O-] [Example 57, 2-((4-((1R,4R)-2,5-diazabicyclo[2.2.1]heptan-2-yl)-2-methyl-2H-indazol-5-yl)carbamoyl)-6-(2-fluoro-6-methoxyphenyl)pyridine 1-oxide] | > 7.00 |
| COc1cccc(F)c1-c1cccc(C(=O)Nc2cc(F)c3c(cnn3C)c2N2CC[C@H](N)C2)[n+]1[O-] [Example 58, 2-((4-((S)-3-aminopyrrolidin-1-yl)-7-fluoro-1-methyl-1H-indazol-5-yl)carbamoyl)-6-(2-fluoro-6-methoxyphenyl)pyridine 1-oxide] | > 7.00 |
| COc1cccc(F)c1-c1cccc(C(=O)Nc2cc(F)c3nn(C)cc3c2N2CC[C@H](N)C2)[n+]1[O-] [Example 59, 2-((4-((S)-3-aminopyrrolidin-1-yl)-7-fluoro-2-methyl-2H-indazol-5-yl)carbamoyl)-6-(2-fluoro-6-methoxyphenyl)pyridine 1-oxide] | > 7.00 |
| COc1cccc(F)c1-c1cccc(C(=O)Nc2ccc3c(nc(C)n3C)c2N2C[C@@H]3C[C@H]2CN3)[n+]1[O-] [Example 60, 2-((4-((1S,4S)-2,5-diazabicyclo[2.2.1]heptan-2-yl)-1,2-dimethyl-1H-benzo[d]imidazol-5-yl)carbamoyl)-6-(2-fluoro-6-methoxyphenyl)pyridine 1-oxide] | > 7.00 |
| COc1cccc(F)c1-c1cccc(C(=O)Nc2ccc3c(nc(C)n3C)c2N2CCC[C@H]2CN)[n+]1[O-] [Example 61, 2-((4-((S)-2-(aminomethyl)pyrrolidin-1-yl)-1,2-dimethyl-1H-benzo[d]imidazol-5-yl)carbamoyl)-6-(2-fluoro-6-methoxyphenyl)pyridine 1-oxide] | > 7.00 |
| COc1cccc(F)c1-c1cccc(C(=O)Nc2ccc3c(nc(C)n3C)c2N2CC[C@H](N)C2)[n+]1[O-] [Example 62, 2-((4-((S)-3-aminopyrrolidin-1-yl)-1,2-dimethyl-1H-benzo[d]imidazol-5-yl)carbamoyl)-6-(2-fluoro-6-methoxyphenyl)pyridine 1-oxide] | 6.00 to 7.00 |
| COc1cccc(F)c1-c1cccc(C(=O)Nc2cc(F)c3nn(C)cc3c2N2C[C@@H](N)C[C@H]2CO)[n+]1[O-] [Example 63, 2-((4-((2S,4S)-4-amino-2-(hydroxymethyl)pyrrolidin-1-yl)-7-fluoro-2-methyl-2H-indazol-5-yl)carbamoyl)-6-(2-fluoro-6-methoxyphenyl)pyridine 1-oxide] | > 7.00 |
| COc1cccc(F)c1-c1nc(C(=O)Nc2cc(F)ccc2N2C[C@@H]3C[C@H]2CN3)cs1 [Example 64, N-(2-((1S,4S)-2,5-diazabicyclo[2.2.1]heptan-2-yl)-5-fluorophenyl)-2-(2-fluoro-6-methoxyphenyl)thiazole-4-carboxamide] | 6.00 to 7.00 |
| COc1cccc(F)c1-n1nc(C(=O)Nc2ccc3c(nc(C)n3C)c2N2CC[C@H](N)C2)ccc1=O [Example 66, (S)—N-(4-(3-aminopyrrolidin-1-yl)-1,2-dimethyl-1H-benzo[d]imidazol-5-yl)-1-(2-fluoro-6-methoxyphenyl)-6-oxo-1,6-dihydropyridazine-3-carboxamide] | > 7.00 |
| Cc1nc2c(N3CCC[C@@H](N)C3)c(NC(=O)c3ccc(=O)n(-c4c(F)cccc4F)n3)ccc2n1C [Example 67, (R)—N-(4-(3-aminopiperidin-1-yl)-1,2-dimethyl-1H-benzo[d]imidazol-5-yl)-1-(2,6-difluorophenyl)-6-oxo-1,6-dihydropyridazine-3-carboxamide] | > 7.00 |
| Cc1nc2c(N3C[C@@H](N)C[C@H]3CO)c(NC(=O)c3ccc(=O)n(-c4c(F)cccc4F)n3)ccc2n1C [Example 68, N-(4-((2S,4S)-4-amino-2-(hydroxymethyl)amidazole-1-yl)-1,2-dimethyl-1H-benzo[d]amidazole-5-yl)-1-(2,6-difluorophenyl)-6-oxo-1,6-dihydropyridazine-3-carboxamide] | 6.00 to 7.00 |
| Cc1nc2c(N3CCN(C)CC3)c(NC(=O)c3ccc(=O)n(-c4c(F)cccc4F)n3)ccc2n1C [Example 69, 1-(2,6-difluorophenyl)-N-(1,2-dimethyl-4-(4-methylpiperazin-1-yl)-1H-benzo[d]imidazol-5-yl)-6-oxo-1,6-dihydropyridazine-3-carboxamide] | 6.00 to 7.00 |
| Cc1nc2c(N(C)[C@@H]3CCCNC3)c(NC(=O)c3ccc(=O)n(-c4c(F)cccc4F)n3)ccc2n1C [Example 70, (R)-1-(2,6-difluorophenyl)-N-(1,2-dimethyl-4-(methyl(piperidin-3-yl)amino)-1H-benzo[d]imidazol-5-yl)-6-oxo-1,6-dihydropyridazine-3-carboxamide] | > 7.00 |
| Cc1nc2c(N3CCNCC3)c(NC(=O)c3ccc(=O)n(-c4c(F)cccc4F)n3)ccc2n1C [Example 71, 1-(2,6-difluorophenyl)-N-(1,2-dimethyl-4-(piperazin-1-yl)-1H-benzo[d]imidazol-5-yl)-6-oxo-1,6-dihydropyridazine-3-carboxamide] | > 7.00 |
| Cc1nc2c(N3CC[C@H](N)C3)c(NC(=O)c3ccc(=O)n(-c4c(F)cccc4F)n3)ccc2n1C [Example 72, (S)-N-(4-(3-aminopyrrolidin-1-yl)-1,2-dimethyl-1H-benzo[d]imidazol-5-yl)-1-(2,6-difluorophenyl)-6-oxo-1,6-dihydropyridazine-3-carboxamide] | > 7.00 |
| Cc1nc2c(N3CC[C@@H](N)C3)c(NC(=O)c3ccc(=O)n(-c4c(F)cccc4F)n3)ccc2n1C [Example 73, (R)-N-(4-(3-aminopyrrolidin-1-yl)-1,2-dimethyl-1H-benzo[d]imidazol-5-yl)-1-(2,6-difluorophenyl)-6-oxo-1,6-dihydropyridazine-3-carboxamide] | > 7.00 |
| Cc1nc2c(N3CCC(N)CC3)c(NC(=O)c3ccc(=O)n(-c4c(F)cccc4F)n3)ccc2n1C [Example 74, N-(4-(4-aminopiperidin-1-yl)-1,2-dimethyl-1H-benzo[d] 98 midazole-5-yl)-1-(2,6-difluorophenyl)-6-oxo-1,6-dihydropyridazine-3-carboxamide] | > 7.00 |
| Cc1nc2c(N3CCC(C)(N)CC3)c(NC(=O)c3ccc(=O)n(-c4c(F)cccc4F)n3)ccc2n1C [Example 76, N-(4-(4-amino-4-methylpiperidin-1-yl)-1,2-dimethyl-1H-benzo[d]imidazol-5-yl)-1-(2,6-difluorophenyl)-6-oxo-1,6-dihydropyridazine-3-carboxamide] | > 7.00 |
| Cc1nc2c(N3CC[C@](C)(N)C3)c(NC(=O)c3ccc(=O)n(-c4c(F)cccc4F)n3)ccc2n1C [Example 77, (S)-N-(4-(3-amino-3-methylpyrrolidin-1-yl)-1,2-dimethyl-1H-benzo[d]imidazol-5-yl)-1-(2,6-difluorophenyl)-6-oxo-1,6-dihydropyridazine-3-carboxamide] | > 7.00 |
| Cc1nc2c(N3CCC4(CC3)CNC4)c(NC(=O)c3ccc(=O)n(-c4c(F)cccc4F)n3)ccc2n1C [Example 78, 1-(2,6-difluorophenyl)-N-(1,2-dimethyl-4-(2,7-diazaspiro[3.5]nonan-7-yl)-1H-benzo[d]imidazol-5-yl)-6-oxo-1,6-dihydropyridazine-3-carboxamide] | > 7.00 |
| Cc1nc2c(N3CC4CNCC4C3)c(NC(=O)c3ccc(=O)n(-c4c(F)cccc4F)n3)ccc2n1C (stereo not drawn) [Example 79, 1-(2,6-difluorophenyl)-N-(4-(hexahydropyrrolo[3,4-c]pyrrol-2(1H)-yl)-1,2-dimethyl-1H-benzo[d]imidazol-5-yl)-6-oxo-1,6-dihydropyridazine-3-carboxamide] | > 7.00 |
| Cc1nc2c(N3C[C@H]4C[C@@H]3CN4)c(NC(=O)c3ccc(=O)n(-c4c(F)cccc4F)n3)ccc2n1C [Example 80, N-(4-((1R,4R)-2,5-diazabicyclo[2.2.1]heptan-2-yl)-1,2-dimethyl-1H-benzo[d]imidazol-5-yl)-1-(2,6-difluorophenyl)-6-oxo-1,6-dihydropyridazine-3-carboxamide] | > 7.00 |
| Cc1nc2c(N3CCNC4(CC4)C3)c(NC(=O)c3ccc(=O)n(-c4c(F)cccc4F)n3)ccc2n1C [Example 81, 1-(2,6-difluorophenyl)-N-(1,2-dimethyl-4-(4,7-diazaspiro[2.5]octan-7-yl)-1H-benzo[d]imidazol-5-yl)-6-oxo-1,6-dihydropyridazine-3-carboxamide] | > 7.00 |
| Cc1nc2c(N3CC[C@H](O)C3)c(NC(=O)c3ccc(=O)n(-c4c(F)cccc4F)n3)ccc2n1C [Example 82, (S)-1-(2,6-difluorophenyl)-N-(4-(3-hydroxypyrrolidin-1-yl)-1,2-dimethyl-1H-benzo[d]imidazol-5-yl)-6-oxo-1,6-dihydropyridazine-3-carboxamide] | > 7.00 |
